The target in one test is T1, 6xHis-CBU0823 (Coxiella burnetii, UniProt Q83DB5).
T1 construct: gene sfcA
The note with it: substrate inhibition constant (KSi), 1 mM MnCl2, PBS pH 7.4.

Test [1] addresses T2, 6xHis-oMLE (Oenococcus oeni, UniProt Q48796).
T2 construct: gene mleA
It counts as biochemical.

The target of test [2] is T2, 6xHis-oMLE. In kind it is biochemical. The source holds these as a separate data set.
Another test deals with T3, GST-CBU1241 (Coxiella burnetii, UniProt Q83C87).
T3 construct: gene mdh
The settings on record: substrate inhibition constant (KSi); 0.5 mM NADH, PBS pH 7.4.

Like-named read-outs stand apart in the source and are kept apart here.

T2 sequence (Q48796 whole entry): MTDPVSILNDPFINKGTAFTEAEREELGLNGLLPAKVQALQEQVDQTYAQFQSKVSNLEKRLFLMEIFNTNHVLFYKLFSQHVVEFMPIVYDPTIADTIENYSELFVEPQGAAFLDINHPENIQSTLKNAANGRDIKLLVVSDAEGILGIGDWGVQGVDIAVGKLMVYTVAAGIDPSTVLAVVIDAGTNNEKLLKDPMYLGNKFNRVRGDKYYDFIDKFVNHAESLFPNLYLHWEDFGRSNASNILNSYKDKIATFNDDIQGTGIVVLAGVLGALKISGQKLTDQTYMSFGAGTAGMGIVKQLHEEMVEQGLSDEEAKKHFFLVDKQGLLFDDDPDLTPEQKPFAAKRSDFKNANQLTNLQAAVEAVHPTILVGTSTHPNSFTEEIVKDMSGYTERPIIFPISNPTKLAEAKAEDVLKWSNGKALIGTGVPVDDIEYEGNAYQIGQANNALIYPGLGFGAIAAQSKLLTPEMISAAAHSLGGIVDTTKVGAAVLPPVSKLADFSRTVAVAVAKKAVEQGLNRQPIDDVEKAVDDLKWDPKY
T1 sequence (Q83DB5 1-565 limits assumed): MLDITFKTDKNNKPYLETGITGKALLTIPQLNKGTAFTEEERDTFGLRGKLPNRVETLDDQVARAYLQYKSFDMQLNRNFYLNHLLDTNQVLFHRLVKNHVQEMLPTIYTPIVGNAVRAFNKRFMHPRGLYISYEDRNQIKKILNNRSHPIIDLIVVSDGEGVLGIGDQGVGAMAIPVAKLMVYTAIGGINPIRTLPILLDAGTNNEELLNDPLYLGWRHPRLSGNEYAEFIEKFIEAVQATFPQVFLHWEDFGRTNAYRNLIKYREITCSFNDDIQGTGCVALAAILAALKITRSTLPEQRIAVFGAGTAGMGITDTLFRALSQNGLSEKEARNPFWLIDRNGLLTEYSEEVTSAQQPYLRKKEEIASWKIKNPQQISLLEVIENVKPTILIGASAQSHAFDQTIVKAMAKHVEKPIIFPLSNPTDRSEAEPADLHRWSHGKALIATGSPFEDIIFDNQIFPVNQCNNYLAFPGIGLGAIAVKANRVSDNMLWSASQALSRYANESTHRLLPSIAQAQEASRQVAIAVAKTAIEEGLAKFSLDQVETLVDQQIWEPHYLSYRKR
T3 sequence (Q83C87 whole entry, looked up): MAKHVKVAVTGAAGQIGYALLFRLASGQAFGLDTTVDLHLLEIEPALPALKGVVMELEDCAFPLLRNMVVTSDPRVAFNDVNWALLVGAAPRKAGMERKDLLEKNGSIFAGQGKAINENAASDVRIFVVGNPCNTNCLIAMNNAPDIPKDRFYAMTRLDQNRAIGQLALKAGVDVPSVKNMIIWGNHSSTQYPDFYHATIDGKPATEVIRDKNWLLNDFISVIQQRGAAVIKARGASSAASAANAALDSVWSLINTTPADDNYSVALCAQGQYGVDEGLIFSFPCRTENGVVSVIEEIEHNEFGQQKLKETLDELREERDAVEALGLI

For the molecule `NC(=O)c1ccc[n+]([C@@H]2O[C@H](COP(=O)(O)OP(=O)(O)OC[C@H]3O[C@@H](n4cnc5c(N)ncnc54)[C@H](O)[C@@H]3O)[C@@H](O)[C@H]2O)c1` [NAD^+], the Ki at 6xHis-CBU0823 (3 mM malate, printed as NADH, but b28, Fig 6B and S3F show varied NAD+) is recorded as 6.30 (95% CI 0.27–12.33) mM.

On to `O=C(O)C[C@H](O)C(=O)O` [malate], for which the Ki on 6xHis-CBU0823 (NAD+ 2.5 mM (Fig 6 legend: 5 mM)) is given as 10.86 (95% CI -7.31–29.05) mM. Further, the “GC-MS detection of lactate and pyruvate” value at 6xHis-oMLE [1] was 6xHis-oMLE could generate amounts of lactate and pyruvate significantly above baseline.

Turning to `O=C(O)CC(=O)C(=O)O` [oxaloacetate], the “NADH oxidation at 340 nm” value at 6xHis-oMLE [2] is recorded as “the observed reduction of OAA indicating MDH activity was not detected in the previous characterisation”. For the same molecule, the Ki on GST-CBU1241 is listed as 1.25 (95% CI -0.85–3.39) mM.

(Values after PMC8362950 (PLoS ONE, 2021).)
